Values after ≈ are worked out from the molar mass of the structure shown.
Experiments:
NCI-H358 cells = experiment: Cell viability assay NCI-H358 (CellTiter-Glo); format: cell-based; conditions: Homo sapiens, 168 h; NCI-H358, incubated for 7 days
Method: The NCI-H358 cell line is from the cell bank of the Department of Biology of WuXi Apptec Co. Ltd. Envision Multi-Label Analyzer (PerkinElmer).
1) 100 μL of phosphate buffer solution was added to the peripheral wells of the 384-well plate and 40 μL of NCI-H358 cell suspension was added to the other wells containing 250 NCI-H358 cells. The cell plate was then placed in a carbon dioxide incubator and incubated overnight.
2) A 3-fold gradient dilution was subjected to the tested compounds using Echo. Each compound was diluted by 10 concentration gradients (diluted from 25 μM to 1.27 nM), 100 nL of which was added to the corresponding wells of the cell plate. The cell plate was then placed in a carbon dioxide incubator and incubated for 7 days.
3) 20 μL of Promega CellTiter-Glo reagent was added to each well of the cell plate, and shaken for 10 minutes away from light at room temperature to stabilize the luminescence signal. Readings were performed using a PerkinElmer Envision Multi-label Analyzer.
Table 1 provides the inhibitory activity of the compounds of the present invention against the proliferation of H358 cells.

[1] = Metabolic stability in human liver microsomes; format: in vitro ADME; conditions: 0.5 mg/mL protein, read-out: Human T1/2
Method: This assay is used to test the metabolic stability of tested substances in rats, mice and human liver microsomes.
1) The tested compound with concentration of 1 μM was co-incubated with liver microsomes with a protein concentration of 0.5 mg/mL under a reducing coenzyme II regeneration system in a 37° C. water bath.
2) The positive controls include: testosterone (3A4 substrate), propafenene (2D6 substrate) and diclofenac (2C9 substrate). The incubation condition of the positive controls was consistent with that of the compound.
3) The reaction time points were: 0, 5, 10, 20, 30 and 60 minutes, and the reaction is terminated at the corresponding time point using a termination solution containing an internal standard. The compounds were also incubated with microsomes for 60 minutes without a reducing coenzyme II regeneration system and served as a negative control.
4) Each time point was a single point (n=1).
5) The sample was determined by LC/MS/MS, and the compound concentration was shown as the ratio of the peak area of the compound to the peak area of the internal standard (non-standard).
6) In the project report summary, the half-life and the clearance rate would be calculated.

CDK6/cyclin D1 = molecular target: T1, CDK6/cyclin D1 (Homo sapiens, UniProt Q00534); experiment: Enzyme activity assay CDK6/cyclin D1 (Lance Ultra); format: biochemical; conditions: 0.8 nM CDK6/cyclin D1, 250 μM ATP, 180 minutes
T1 construct: purchased Life technology
T1 sequence (Q00534 whole entry): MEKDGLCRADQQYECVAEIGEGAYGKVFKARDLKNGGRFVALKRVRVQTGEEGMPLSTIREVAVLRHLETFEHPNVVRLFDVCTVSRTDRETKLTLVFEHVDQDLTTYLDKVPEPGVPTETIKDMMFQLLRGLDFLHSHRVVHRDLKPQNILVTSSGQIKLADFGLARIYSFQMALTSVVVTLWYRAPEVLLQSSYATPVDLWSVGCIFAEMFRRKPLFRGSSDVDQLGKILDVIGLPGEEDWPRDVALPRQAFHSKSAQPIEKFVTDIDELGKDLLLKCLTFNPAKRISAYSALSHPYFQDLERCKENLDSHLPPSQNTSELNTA
T1 sequence (P24385 whole entry partner): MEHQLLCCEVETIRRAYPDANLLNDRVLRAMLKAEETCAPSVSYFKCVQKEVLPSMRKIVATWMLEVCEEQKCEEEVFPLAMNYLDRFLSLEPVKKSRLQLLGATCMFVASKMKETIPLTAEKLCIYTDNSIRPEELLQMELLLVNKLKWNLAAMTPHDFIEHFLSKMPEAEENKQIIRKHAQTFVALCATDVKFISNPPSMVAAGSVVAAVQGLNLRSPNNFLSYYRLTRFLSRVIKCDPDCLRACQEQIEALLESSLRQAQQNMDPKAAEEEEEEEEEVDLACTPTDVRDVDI
Method: (§1) CDK4/cyclin D1, CDK6/cyclin D1 (Life technology). ULight labeled polypeptide substrates ULight-4E-BP1 and ULight-MBP (PerkinElmer). Europium labeled anti-myelin basic protein antibody and europium labeled rabbit-derived antibody (PerkinElmer). Envision Multi-label Analyzer (PerkinElmer) for signal detection.
(§2) They were respectively dissolved in an enzyme buffer solution comprising: 50 mM hydroxyethylpiperazine ethanesulfuric acid solution at pH 7.5, 1 mM ethylenediaminetetraacetic acid, 10 mM magnesium chloride, 0.01% Brij-35, 2 mM dithiothreitol. After the reaction was started, the OptiPlate 384-well plate was sealed with a top heat seal film TopSeal-A and incubated at room temperature for 180 minutes.
(§3) The termination buffer solution of the enzymatic reaction was prepared, and EDTA was dissolved in a 1-fold diluted assay buffer solution. The reaction was terminated and incubated at room temperature for 5 minutes. 5 μL of the assay mixed solution (prepared with europium labeled anti-myelin basic protein antibody and europium labeled rabbit-derived antibody, respectively) was added to the reactions of CDK4/cyclin D1 and CDK6/cyclin D1, respectively, and incubated at room temperature for 60 minutes. The reaction signal was detected by Envision according to the time-resolved fluorescence resonance energy transfer theory.

[2] = Thermodynamic solubility test (shake-flask, HPLC); format: physicochemical; conditions: phosphate buffer, aqueous buffer, thermodynamic from solid; pH = 7.4, Table 3-2; read-out: Thermodynamic solubility
Method: The thermodynamic solubility of the compounds was determined by the shake-flask method and HPLC. The solubility of the compounds is an important property that affects drug screening of compounds and the absorption of compounds in animals and humans. A saturated solution of the compound was first given and quantitatively tested by HPLC to obtain the solubility of the compound.
50 mM phosphate buffer solution, pH 7.4.
Not less than 2 mg of the sample powder was weighed into a vial of Whatman miniuniprep. If test of the thermodynamic solubility of a sample in multiple buffer solutions is required, an individual vial is required for each test.
450 μL of the buffer solution (pH 7.4) was added to each Whatman miniuniprep vial.
After the addition of the buffer solution, the Whatman miniuniprep cap with a filter was mounted and pressed above the liquid level so that the filter could contact with the buffer solution during shaking.
And the observation of the solution was recorded.
It was shaked at 550 RPM for 24 hours at room temperature (about 22 to 25° C.).
The Whatman Miniunipreps filter cap was pressed to the bottom to give the filtrate of the sample solubility solution. All sample vials should be filtered before and after insoluble substances and their leakage.
The buffer was diluted 50 folds to give a sample diluent.
Three UV standards from low to high concentration were injected into HPLC, followed by the injection of the dilutions and supernatants of the tested compounds. The tested sample was injected twice.

Caco-2 cells = experiment: Two-way permeability evaluation assay of Caco-2 cells; conditions: Caco-2
[3] = as above; conditions: human, Caco-2, pH 7.4
CDK4/cyclin D1 = molecular target: T2, CDK4/cyclin D1 (Homo sapiens, UniProt P11802); experiment: Enzyme activity assay CDK4/cyclin D1 (Lance Ultra); format: biochemical; conditions: 0.3 nM CDK4/cyclin D1, 350 μM ATP, 180 minutes
T2 construct: purchased Life technology
T2 sequence (P11802 whole entry): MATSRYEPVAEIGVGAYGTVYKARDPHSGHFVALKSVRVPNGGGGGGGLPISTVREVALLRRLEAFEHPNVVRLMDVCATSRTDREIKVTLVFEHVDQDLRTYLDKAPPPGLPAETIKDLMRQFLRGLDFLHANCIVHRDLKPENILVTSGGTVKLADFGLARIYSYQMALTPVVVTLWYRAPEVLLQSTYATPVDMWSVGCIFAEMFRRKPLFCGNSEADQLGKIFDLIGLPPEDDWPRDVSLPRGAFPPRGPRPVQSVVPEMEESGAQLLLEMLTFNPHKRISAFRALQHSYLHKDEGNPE
T2 sequence (P24385 whole entry partner): as the sequence (P24385 whole entry partner) above
Method: as §1
as §2, with “begun,” for “started,”, “TopSeal-A,” for “TopSeal-A”
as §3

physchem = conditions: phosphate buffer, pH 7.4, aqueous buffer, kinetic from dmso stock

**Q.** With CC(=O)c1c(C)c2cnc(Nc3cnc(N4CCN(CCN(C)C)CC4)cn3)cc2n(C2CCCC2)c1=O [Example 34] as the compound, how does the IC50 (NCI-H358 cells) read?
**A.** 179 nM

**Q.** What about the half-life at 1 μM [1] of the same compound?
**A.** 43.1 min

**Q.** What about the IC50 (CDK6/cyclin D1) of the same compound?
**A.** 3.65 nM

**Q.** And the solubility thermodynamic at 24 h [2]?
**A.** 6.42 mM (≈ 3330 µg/mL)

**Q.** And the “Category Efflux transporter substrate” value (Caco-2 cells)?
**A.** Highly

**Q.** And the “Category Permeability” value (Caco-2 cells)?
**A.** Low

**Q.** And the Papp A→B at 2 h, 2 μM [3]?
**A.** 1.15 ×10⁻⁶ cm/s

**Q.** And the Papp B→A at 2 h, 2 μM [3]?
**A.** 16 ×10⁻⁶ cm/s

**Q.** What about the efflux ratio at 2 h, 2 μM [3] of the same compound?
**A.** 14

**Q.** What about the IC50 (CDK4/cyclin D1) of the same compound?
**A.** 7.45 nM

**Q.** What about the solubility kinetic at 24 h (physchem) of the same compound?
**A.** 0.194 mM (≈ 101 µg/mL)

— patent US10676474B2, “1,6-naphthyridine derivatives as CDK4/6 inhibitor” (CSTONE PHARMACEUTICALS, priority 2016, dated 2020)
